Data set [1] is described as follows: Plasma aztreonam after intraduodenal aztreonam/PEP (HPLC). Type of data set: in vivo. The settings on record: male, Sprague-Dawley, rat, rats. On the procedure: (§1) The abdominal muscle was sutured under the skin. […] Four rats were in each treatment group. […]
Aztreonam solution (containing arginine as a pH adjuster) was mixed with a solution of methylcellulose, and this mixture was added to solutions of glucosamine and sucrose palmitate in water before administration to rats. […] The contents of aztreonam/PEP comprised an individual dosage of 40 mg/kg aztreonam, 400 mg/kg sucrose palmitate, glucosamine in a 1:4 mole ratio of aztreonam to glucosamine, methylcellulose in a 1:0.5 mole ratio of aztreonam to methylcellulose, and arginine in a 1:0.6 mole ratio of aztreonam to arginine. […] Plasma was analyzed by HPLC, and bioavailability was calculated.

The nature of data set [2]: Plasma calcitonin after intraduodenal calcitonin/PEP (ELISA). Type of data set: in vivo. The settings on record: male, Sprague-Dawley, rat, rats, read-out: Average plasma concentration of Calcitonin. On the procedure: as §1
Plasma was analyzed by ELISA according to methods well known in the art.

Data set [3] is described as follows: Plasma isepamicin after intraduodenal isepamicin/PEP (HPLC). Type of data set: in vivo. The settings on record: male, Sprague-Dawley, rat, other: intraduodenal, rats. On the procedure: as §1
Isepamicin solution was mixed with methylcellulose solution, and the resulting mixture was mixed with solutions of glucosamine and sucrose stearate 16 in water before administration to rats. […] The contents of isepamicin/PEP comprised an individual dosage of 75 mg/kg isepamicin, 400 mg/kg sucrose stearate, glucosamine in a 1:4 mole ratio of isepamicin to glucosamine, and methylcellulose in a 1:0.5 mole ratio of isepamicin to methylcellulose. […] Plasma was analyzed by HPLC, and bioavailability was calculated.

Data set [4] is described as follows: Plasma netilmicin after intraduodenal netilmicin/PEP (HPLC). Type of data set: in vivo. Particulars: male, Sprague-Dawley, rat, rats. On the procedure:
as §1
Netilmicin solution was mixed with a solution of methylcellulose, and this mixture was added to solutions of glucosamine and sucrose stearate in water before administration to rats. […] The contents of netilmicin/PEP comprised an individual dosage of 80 mg/kg netilmicin, 400 mg/kg sucrose stearate, glucosamine in a 1:4 mole ratio of netilmicin to glucosamine, and methylcellulose in a 1:0.5 mole ratio of netilmicin to methylcellulose. […] Plasma was analyzed by HPLC, and bioavailability was calculated.

A short description of data set [5]: Plasma teicoplanin after intraduodenal teicoplanin/PEP (HPLC). Particulars: rats. Type of data set: in vivo. On the procedure: as §1
Teicoplanin solution was mixed with a solution of methylcellulose, and this mixture was added to solutions of glucosamine and sucrose stearate in water before administration to rats. […] The contents of teicoplanin/PEP comprised an individual dosage of 64 mg/kg teicoplanin, 400 mg/kg sucrose stearate, glucosamine in a 1:4 mole ratio of teicoplanin to glucosamine, and methylcellulose in a 1:0.5 mole ratio of teicoplanin to methylcellulose. […] Plasma was analyzed by HPLC, and bioavailability was calculated.

The conditions of data set [6]: diabetic rats, intraduodenal, insulin 50 IU/kg in carrier (100 units).
Source text: as §1

The test system of data set [7] is non-diabetic rats. Description: Serum glucose after intraduodenal insulin/PEP in non-diabetic rats. Type of data set: in vivo. The settings on record: insulin 50 IU/kg in carrier (100 units).
Source text: as §1

For data set [8], the system named is diabetes induced rats. Description: Serum glucose after intraduodenal insulin/PEP in diabetic rats. Type of data set: in vivo. The settings on record: insulin 50 IU/kg in carrier (100 units).
Source text: as §1

The compound `C[C@H]1[C@H](NC(=O)/C(=N\OC(C)(C)C(=O)O)c2csc(N)n2)C(=O)N1S(=O)(=O)O` [Aztreonam] had a concentration at 60 min in data set [1] (other: intraduodenal, aztreonam/PEP 40 mg/kg aztreonam, 60 min) of 97000 ng/mL. For the same compound, in data set [1] (other: intraduodenal, aztreonam/PEP 40 mg/kg aztreonam, 90 min), the concentration at 90 min turned out to be 87900 ng/mL. Further, the concentration at 120 min in data set [1] (other: intraduodenal, aztreonam/PEP 40 mg/kg aztreonam, 120 min) amounted to 89600 ng/mL. In data set [1] (other: intraduodenal, aztreonam/PEP 40 mg/kg aztreonam, 180 min), this compound displayed a concentration at 180 min of 67000 ng/mL. This compound also gave a concentration at 240 min in data set [1] (other: intraduodenal, aztreonam/PEP 40 mg/kg aztreonam, 240 min) of 55200 ng/mL. Besides, in data set [1] (other: intraduodenal, aztreonam/PEP (40 mg/kg aztreonam, 400 mg/kg sucrose palmitate, glucosamine, methylcellulose, arginine), 30 min), the concentration at 30 min was found to be 95400 ng/mL. In data set [1] (aztreonam/PEP 40 mg/kg aztreonam, read-out: percent bioavailability), the bioavailability stood at 91.1 ± 14.6%.

For `CC(C)C[C@H](NC(=O)[C@H](CCCCN)NC(=O)CNC(=O)[C@H](CC(C)C)NC(=O)[C@@H](NC(=O)[C@@H]1CSSC[C@H](N)C(=O)N[C@@H](CO)C(=O)N[C@@H](CC(N)=O)C(=O)N[C@@H](CC(C)C)C(=O)N[C@@H](CO)C(=O)N[C@@H]([C@@H](C)O)C(=O)N1)C(C)C)C(=O)N[C@@H](CO)C(=O)N[C@@H](CCC(N)=O)C(=O)N[C@@H](CCC(=O)O)C(=O)N[C@@H](CC(C)C)C(=O)N[C@@H](Cc1c[nH]cn1)C(=O)N[C@@H](CCCCN)C(=O)N[C@@H](CC(C)C)C(=O)N[C@@H](CCC(N)=O)C(=O)N[C@H](C(=O)N[C@@H](Cc1ccc(O)cc1)C(=O)N1CCC[C@H]1C(=O)N[C@@H](CCCNC(=N)N)C(=O)N[C@H](C(=O)N[C@@H](CC(N)=O)C(=O)N[C@H](C(=O)NCC(=O)N[C@@H](CO)C(=O)NCC(=O)N[C@H](C(=O)N1CCC[C@H]1C(N)=O)[C@@H](C)O)[C@@H](C)O)[C@@H](C)O)[C@@H](C)O` [Calcitonin], in data set [2] (calcitonin/PEP 2 mg/kg calcitonin, 30 min), the level at 0.5 h worked out at 8.61 ng/mL. For the same compound, the level at 0.75 h in data set [2] (calcitonin/PEP 2 mg/kg calcitonin, 45 min) was 10.9 ng/mL. The level at 1 h in data set [2] (calcitonin/PEP 2 mg/kg calcitonin, 60 min) was 7.55 ng/mL. For the same compound, the level at 1.5 h in data set [2] (calcitonin/PEP 2 mg/kg calcitonin, 90 min) was found to be 3.36 ng/mL. Besides, the level at 2 h in data set [2] (calcitonin/PEP 2 mg/kg calcitonin, 120 min) came out at 1.72 ng/mL. The level at 3 h in data set [2] (calcitonin/PEP 2 mg/kg calcitonin, 180 min) is 0.69 ng/mL. Also, the level at 4 h in data set [2] (calcitonin/PEP 2 mg/kg calcitonin, 240 min) stood at 0.99 ng/mL. The level at 0.25 h in data set [2] (calcitonin/PEP (2 mg/kg calcitonin, 40 mg/kg sucrose laurate 16, glucosamine, methylcellulose), 15 min) came out at 8.02 ng/mL.

In the case of `CN[C@@H]1[C@@H](O)[C@@H](O[C@@H]2[C@@H](O)[C@H](O[C@H]3O[C@H](CN)[C@@H](O)[C@H](O)[C@H]3O)[C@@H](N)C[C@H]2NC(=O)[C@@H](O)CN)OC[C@]1(C)O` [Isepamicin], in data set [3] (isepamicin/PEP 75 mg/kg isepamicin, 60 min), the concentration at 60 min was 102000 ng/mL. The same compound gave a concentration at 120 min in data set [3] (isepamicin/PEP 75 mg/kg isepamicin, 120 min) of 73600 ng/mL. The compound further gave a concentration at 180 min in data set [3] (isepamicin/PEP 75 mg/kg isepamicin, 180 min) of 49900 ng/mL. Further, the concentration at 240 min in data set [3] (isepamicin/PEP 75 mg/kg isepamicin, 240 min) worked out at 43900 ng/mL. This compound also returned a concentration at 360 min in data set [3] (isepamicin/PEP 75 mg/kg isepamicin, 360 min) of 35800 ng/mL. The compound further had a concentration at 30 min in data set [3] (isepamicin/PEP (75 mg/kg isepamicin, 400 mg/kg sucrose stearate, glucosamine, methylcellulose), 30 min) of 84200 ng/mL.

In data set [4] (other: intraduodenal, netilmicin/PEP 80 mg/kg netilmicin, 60 min), `CCN[C@@H]1C[C@H](N)[C@@H](O[C@H]2OC(CN)=CC[C@H]2N)[C@H](O)[C@H]1O[C@H]1OC[C@](C)(O)[C@H](NC)[C@H]1O` [Netilmicin] displayed a concentration at 60 min of 70700 ng/mL. In data set [4] (other: intraduodenal, netilmicin/PEP 80 mg/kg netilmicin, 120 min), the concentration at 120 min worked out at 39300 ng/mL. Moreover, in data set [4] (other: intraduodenal, netilmicin/PEP 80 mg/kg netilmicin, 180 min), the concentration at 180 min came to 38900 ng/mL. In data set [4] (other: intraduodenal, netilmicin/PEP 80 mg/kg netilmicin, 240 min), this compound displayed a concentration at 240 min of 35800 ng/mL. This compound also came in with a concentration at 360 min in data set [4] (other: intraduodenal, netilmicin/PEP 80 mg/kg netilmicin, 360 min) of 34800 ng/mL. In addition, the concentration at 30 min in data set [4] (other: intraduodenal, netilmicin/PEP (80 mg/kg netilmicin, 400 mg/kg sucrose stearate, glucosamine, methylcellulose), 30 min) is 62100 ng/mL. For the same compound, in data set [4] (netilmicin/PEP 80 mg/kg netilmicin, read-out: percent bioavailability), the bioavailability came out at 73%.

Take Teicoplanin: the percent bioavailability in data set [5] (teicoplanin/PEP 64 mg/kg teicoplanin) is 35.07%. Further, the “Average plasma concentration Teicoplanin” value is 9.50 µg/mL in data set [5] (teicoplanin/PEP 64 mg/kg teicoplanin, 60 min); 10.36 µg/mL in data set [5] (teicoplanin/PEP 64 mg/kg teicoplanin, 120 min); 12.22 µg/mL in data set [5] (teicoplanin/PEP 64 mg/kg teicoplanin, 180 min); 11.29 µg/mL in data set [5] (teicoplanin/PEP 64 mg/kg teicoplanin, 240 min); 11.14 µg/mL in data set [5] (teicoplanin/PEP (64 mg/kg teicoplanin, 400 mg/kg sucrose stearate, glucosamine, methylcellulose), 30 min).

Regarding “insulin: insulin given with methylcellulose, sucrose laurate 16 and glucosamine (insulin/PEP composition)”, the serum insulin entry in data set [6] is recorded as “detected”. The “hypoglycemic response (serum glucose)” value in data set [7] is listed as “No significant hypoglycemic response”. Further, the “hypoglycemic effect (serum glucose)” value in data set [8] was “significant hypoglycemic effects were observed”.

Source of the values: patent publication US7666446B2, “Oral formulation for delivery of poorly absorbed drugs” (ProCarrier, Inc., priority 2004, dated 2010).
